What was measured:
[1] = test system: LN229 human glioblastoma cells; experiment: LN229 human glioblastoma cells stereotactically injected into nude mice brain: treatment with macitentan and temozolomide (Example 1); assay type: in vivo; conditions: nude mice with intracerebral LN229; treatment from two weeks after injection; temozolomide 7.5 mg/kg oral daily one week on/two weeks off; macitentan 10 mg/kg oral daily; day 100
Procedure: (§1) Forty-eight (48) female Swiss Nude mice were obtained from Charles River (France). […] Animal experiments were performed according to the European ethical guidelines of animal experimentation.
The mice were monitored daily and euthanized when they developed neurologic symptoms or became moribund. Days of survival were recorded and brain tissues were harvested and processed for histologic examinations. The experiment was terminated on day 100.

[2] = test system: phosphorylated AKT and MAPK; experiment: Immunohistochemistry of tumors using antibodies against phosphorylated AKT and MAPK; assay type: in vivo, mice; conditions: tumors of treated animals, Examples 1 and 2 (macitentan) and Example 3 (atrasentan, zibotentan)
Description: Suppression of survival and proliferation pathways sensitizes cells to chemotherapy and could be the reason for the high effectiveness of macitentan in combination with chemotherapy.

[3] = test system: LN229 human glioblastoma cells; experiment: LN229 human glioblastoma cells stereotactically injected into nude mice brain: treatment with macitentan and paclitaxel (Example 2); assay type: in vivo; conditions: nude mice with intracerebral LN229, paclitaxel 8.5 mg/kg intraperitoneal weekly, macitentan 10 mg/kg oral daily
Procedure: as §1

Compound | survival rate after 100 days [1] | reduction of phosphorylated AKT and MAPK in tumors (immunohistochemistry) [2] | survival after 70 days [3]
Cn1nnc2c(C(N)=O)ncn2c1=O [TMZ, temozolomide] | about 40% |  | 
CCCNS(=O)(=O)Nc1ncnc(OCCOc2ncc(Br)cn2)c1-c1ccc(Br)cc1 [macitentan] | about 40% | strong reduction of both proteins | about 60%
COc1nc(C)cnc1NS(=O)(=O)c1cccnc1-c1ccc(-c2nnco2)cc1 [Zibotentan, zibotentan] |  | much less prominent | 
CCCCN(CCCC)C(=O)CN1C[C@H](c2ccc3c(c2)OCO3)[C@@H](C(=O)O)[C@@H]1c1ccc(OC)cc1 [Atrasentan, atrasentan] |  | much less prominent | 
CC(=O)O[C@H]1C(=O)[C@@]2(C)[C@H]([C@H](OC(=O)c3ccccc3)[C@]3(O)C[C@H](OC(=O)[C@H](O)[C@@H](NC(=O)c4ccccc4)c4ccccc4)C(C)=C1C3(C)C)[C@]1(OC(C)=O)CO[C@@H]1C[C@@H]2O [PTL, paclitaxel] |  |  | about 60%
